Source: US6620828B2, “Thiazole compounds and pharmaceutical compositions for inhibiting protein kinases and methods for their use” (Agouron Pharmaceuticals, Inc., priority 1999, dated 2003)
pIC50, pKi: −log10 of the molar value. Several values for one entry are separate records, joined by “and”; a condition that tells them apart may be missing. Identical values can stand only once. Like-named read-outs stand apart in the source and are kept apart here.

Legend:
[1] = test system: lung cancer cells (line MV522); experiment: Cancer cell proliferation (MV522) assay; assay type: cell-based
[2] = molecular target: T1, phosphorylated VEGF-R2Δ50 (FLVK-P) (Homo sapiens, UniProt P35968, DEL940-989/E990V); experiment: VEGF-R2 coupled spectrophotometric (FLVK-P) assay; assay type: biochemical; details: for pKi: spectrophotometric assay
T1 construct: VEGF-R2Δ50 contains residues 806-939 and 990-1171; made in house; host or cells: baculovirus/insect cells
Procedure, shortened: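 Baculovirus-expressed human VEGF-R2Δ50 (residues 806-939/990-1171, E990V) was autophosphorylated with 3 mM ATP, 40 mM MgCl2 for 2 h at 4° C. ADP formation was coupled via PK/LDH to NADH oxidation, read at 340 nm, with 5.1 mM poly(E4Y1), 1 mM ATP, 25 mM MgCl2, Hepes pH 7.5. Ki came from activity across compound concentrations.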

LCK tyrosine kinase [3] = molecular target: T2, LCK tyrosine kinase (Homo sapiens, UniProt P06239, C224D/P223M); experiment: LCK spectrophotometric assay; assay type: biochemical; details: for pKi: Table 3, first value of cells with two values
T2 construct: starting from amino acid residue 223 to the end of the protein at residue 509; made in house; host or cells: insect cells
Experimental: LCK Construct for Assay: The LCK tyrosine kinase was expressed in insect cells as an N-terminal deletion starting from amino acid residue 223 to the end of the protein at residue 509, with the following two amino acid substitutions at the N-terminus: […] and C224D.
The spectrophotometric assay was carried out as described above for VEGF-R2, except for the following changes in concentration: LCK=60 nM, MgCl2=0 mM, poly(E4Y1)=20 mM.

[4] = molecular target: T3, unphosphorylated VEGF-R2Δ50 (FLVK) (Homo sapiens, UniProt P35968, DEL940-989/E990V); experiment: VEGF-R2 coupled spectrophotometric assay, unphosphorylated enzyme (FLVK); assay type: biochemical
T3 construct: VEGF-R2Δ50 contains residues 806-939 and 990-1171; made in house; host or cells: baculovirus/insect cells
Procedure, shortened: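 Unphosphorylated VEGF-R2Δ50 (5 to 40 nM) with 20 mM poly(E4Y1), 3 mM ATP, 60 mM MgCl2, 2 mM MnCl2 in 200 mM Hepes pH 7.5. ADP production coupled via PK/LDH to NADH oxidation, read at 340 nm. Ki from activity at varying compound concentrations.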

[5] = test system: human umbilical vein endothelial cells (HUVEC); experiment: HUVEC proliferation assay; assay type: cell-based; details: Homo sapiens, HUVEC
Procedure, shortened: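 Exponentially growing HUVEC were serum-starved 24 h (F12K + 1% FBS), pre-treated 1 h with compound (0.1% DMSO final), then stimulated with 6 ng/ml VEGF. Proliferation was read 72 h later by MTT reduction (A595). IC50 came from seven 0.5-log concentrations in triplicate; screens gave % inhibition relative to VEGF-only and starved wells.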

LCK tyrosine kinase [6] = molecular target: T2, LCK tyrosine kinase; experiment: LCK spectrophotometric assay; assay type: biochemical; details: Table 3, read-out: LCK (% inh @ 1 uM)
FGF-R1 = molecular target: T4, FGF-R1 (Homo sapiens, UniProt P11362, C488A/C584S/L457V); experiment: FGF-R spectrophotometric assay; assay type: biochemical; details: for inhibition at 1 µM: Table 3, % inh @ 1 uM, read-out: FGF-P Ki (nM) (% inh @ 1 uM)
T4 construct: starting from the endogenous methionine residue 456 to glutamate 766; made in house; host or cells: baculovirus vector expression system
Procedure, shortened: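 Kinase domain (Met456–Glu766, baculovirus-expressed) used at 50 nM in a spectrophotometric assay run as for VEGF-R2. Substrates were 2 mM ATP and 15 mM poly(E4Y1).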

FAKcd409 = molecular target: T5, FAKcd409 (Homo sapiens, UniProt Q05397, P410T); experiment: FAK HTS assay; assay type: biochemical; details: 10 uM compound, HTS Delphia assay; 10 µM
T5 construct: comprises residues methionine 409 to glutamate 689; made in house; host or cells: baculovirus vector expression system

VEGF = experiment: In vivo assay of retinal vascular development in neonatal rats; parameters: species or system rat; details: development model; intravitreal, 2 μl of 5 mg/ml initial drug concentration
Excerpt: In Vivo Assay of Retinal Vascular Development in Neonatal Rats
The development of the retinal vascular in rats occurs from postnatal day 1 to postnatal day 14 (P1-P14). This process is dependent on the activity of VEGF (J. Stone, et al, J. Neurosci., 15, 4738 (1995)). […] To assess the ability of specific compounds to inhibit the activity of VEGF in vivo, compounds were formulated in an appropriate vehicle, usually 50% polyethylene glycol, average molecular weight 400 daltons, and 50% solution of 300 mM sucrose in deionized water. Typically, two microliters (2 μl) of the drug solution was injected into the midvitreous of the eye of rat pups on postnatal day 8 or 9. Six days after the intravitreal injection, the animals were sacrificed and the retinas dissected free from the remaining ocular tissue. […] The individual retinas are then flat-mount onto glass slides and examined to determine the extent of vascularization. […] The amount of vessel regression was used to assess the relative potency of the compounds after in vivo administration. Vessel regression is graded on subjective scale of one to three pluses, with one plus being detectable regression judged to be approximately 25 percent or less, two pluses being judged to be approximately 25-75% regression and three pluses give to retinas with near total regression (approximately 75% or greater).

[7] = test system: VEGF dependent retinal neovascularization; experiment: In vivo assay in neonatal rat model of retinopathy of prematurity; details: intravitreal injection
Experimental: In Vivo Assay of Retinal Vascular Development in Neonatal Rat Model of Retinopathy of Prematurity
A second model of VEGF dependent retinal neovascularization was employed to evaluate the activities of this series of compounds. In this model (Penn et. al, Invest. Ophthalmol. Vis. Sci., 36, 2063, (1995)), rats pups (n=16) with their mother are placed in a computer controlled chamber that regulates the concentration of oxygen. The animals are exposed for 24 hours to a concentration of 50% oxygen followed by 24 hours at a concentration of 10% oxygen. This alternating cycle of hyperoxia followed by hypoxia is repeated 7 times after which the animals are removed to room air (P14). Compounds are administered via intravitreal injection upon removal to room air and the animals are sacrificed 6 days later (P20). The isolated retinas are then isolated, stained mounted and analyzed as detail above in the development model. The effectiveness was also graded as is described for the development model.

[8] = Table 3, some entries 'Slow binder'

T3 sequence (P35968 with tags, fused parts or gaps DEL940-989/E990V limits assumed): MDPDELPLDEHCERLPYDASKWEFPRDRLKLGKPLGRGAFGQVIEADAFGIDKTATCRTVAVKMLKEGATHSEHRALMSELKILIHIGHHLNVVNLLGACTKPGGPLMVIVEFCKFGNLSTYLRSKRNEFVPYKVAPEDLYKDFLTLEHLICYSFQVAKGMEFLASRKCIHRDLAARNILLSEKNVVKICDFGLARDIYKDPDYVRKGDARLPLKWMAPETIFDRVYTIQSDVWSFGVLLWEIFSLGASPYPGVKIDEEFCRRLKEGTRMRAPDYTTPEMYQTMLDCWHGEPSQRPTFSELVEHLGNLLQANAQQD
T1 sequence (P35968 with tags, fused parts or gaps DEL940-989/E990V limits assumed): as above
T4 sequence (P11362 456-766 L457V/C488A/C584S): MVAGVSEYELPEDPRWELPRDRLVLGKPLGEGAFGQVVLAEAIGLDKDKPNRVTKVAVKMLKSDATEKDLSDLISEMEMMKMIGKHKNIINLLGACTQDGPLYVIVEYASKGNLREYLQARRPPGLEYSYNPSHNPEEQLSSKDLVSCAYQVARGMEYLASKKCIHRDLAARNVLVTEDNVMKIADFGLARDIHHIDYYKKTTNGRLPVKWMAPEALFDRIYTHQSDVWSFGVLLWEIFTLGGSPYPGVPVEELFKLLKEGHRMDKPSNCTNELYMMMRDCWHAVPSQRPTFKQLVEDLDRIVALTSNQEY
T2 sequence (P06239 223-509 P223M/C224D): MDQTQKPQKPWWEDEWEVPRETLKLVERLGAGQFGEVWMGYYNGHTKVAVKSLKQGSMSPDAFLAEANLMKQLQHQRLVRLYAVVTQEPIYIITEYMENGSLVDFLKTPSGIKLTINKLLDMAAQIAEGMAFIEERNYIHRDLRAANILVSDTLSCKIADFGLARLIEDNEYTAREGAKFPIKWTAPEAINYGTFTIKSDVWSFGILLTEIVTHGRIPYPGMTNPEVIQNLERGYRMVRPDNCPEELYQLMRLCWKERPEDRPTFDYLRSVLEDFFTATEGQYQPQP
T5 sequence (Q05397 409-689 P410T): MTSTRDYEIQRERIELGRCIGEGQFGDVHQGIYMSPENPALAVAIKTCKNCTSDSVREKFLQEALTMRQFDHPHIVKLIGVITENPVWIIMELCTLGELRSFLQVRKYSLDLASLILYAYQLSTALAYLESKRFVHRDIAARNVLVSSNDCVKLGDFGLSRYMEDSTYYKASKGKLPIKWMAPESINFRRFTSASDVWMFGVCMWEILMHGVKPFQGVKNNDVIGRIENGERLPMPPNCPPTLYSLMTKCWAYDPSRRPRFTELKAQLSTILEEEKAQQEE

SMILES	inhibition at 1 µM (LCK tyrosine kinase [6]) [%]	pKi (LCK tyrosine kinase [3])	pKi [4, 8]	inhibition at 1 µM (FGF-R1) [%]	pIC50 ([5]; Table 3)	further results
CC(=O)Nc1nc(N)c(-c2nc(-c3cccc(NC(=O)c4ccccc4)c3)cs2)s1 [F(9), N-[3-(2′-Acetylamino-4′-amino-[2,5′]bithiazolyl-4-yl)-phenyl]benzamide]	–	–	–	–	–	pIC50 ([1]; MV522, Table 1): < 5.00; pKi ([2]; Table 1): 8.11; inhibition at 1 µM (LCK tyrosine kinase [3]; Table 1, 1 μM): 12%; pKi ([4]; Table 1): 8.02; pIC50 ([5]; Table 1): 7.68
COc1cc(Nc2nc(N)c(-c3nc(-c4cc(NC(=O)c5cccc(Cl)c5)ccc4Cl)no3)s2)cc(OC)c1OC [D(64)]	94	8.49	8.85	84	7.00 to 8.00	pIC50 ([1]; MV522, Table 3): 5.70
COc1cccc(C(=O)Nc2ccc(Cl)c(-c3noc(-c4sc(Nc5cc(OC)c(OC)c(OC)c5)nc4N)n3)c2)c1 [D(65), N-(3-{5-[4-Amino-2-(3,4,5-trimethoxy-phenylamino)-thiazol-5-yl]-[1,2,4]oxadiazyl}-4-chloro-phenyl)-3-methoxy-benzamide]	91	8.03	9.00	37	8.37	pIC50 ([1]; MV522, Table 3): 5.68
COc1cc(Nc2nc(N)c(-c3nc(-c4ccccc4O)cs3)s2)cc(OC)c1OC [A(23), 2-[4′-Amino-2′-(3,4,5-trimethoxy-phenylamino)-[2,5′]bithiazolyl-4-yl]-phenol]	–	–	–	–	–	melting point: 186 to 190 °C (dec.); pKi ([2]; Table 2): 7.41; LCK % inhibition @ 5 (LCK tyrosine kinase [3]; Table 2, at 5 (head μM)): 34% @; % inhibition of FAK (FAKcd409): −5% and −6% and 4%; FGF-R % inhibition @ 5 (FGF-R1; Table 2, at 5 (head μM)): 47% @
CCn1nc(C)cc1C(=O)Nc1ccc(C)c(-c2noc(-c3sc(Nc4ccc(CO)cc4)nc3N)n2)c1 [B(30)]	–	–	10.07	–	–	Vessel regression grade (VEGF): ++ (two pluses being judged to be approximately 25-75% regression)

Now from value to compound, other results behind:

inhibition at 1 µM (LCK tyrosine kinase [6]) [%]	pKi (LCK tyrosine kinase [3])	pKi [4, 8]	inhibition at 1 µM (FGF-R1) [%]	SMILES	pIC50 ([5]; Table 3)	further results
92	–	–	61	COc1cccc(C(=O)Nc2ccc(C)c(-c3noc(-c4sc(Nc5cc(OC)c(OC)c(OC)c5)nc4N)n3)c2)c1 [D(74), 3-[3-[(3-methoxybenzoyl)amino]-6-methyl-phenyl]-5-[2-[(3,4,5-trimethoxyphenyl)amino]-4-amino-5-thiazolyl]-1,2,4-oxadiazole]	8.28	inhibition at 0.05 µM ([2]; Table 3, at 50 nM): 91%; Vessel regression grade [7]: ++ (two pluses being judged to be approximately 25-75% regression)
97	8.96	–	64	COc1cc(Nc2nc(N)c(-c3nc(-c4cc(NC(=O)c5cccc(Cl)c5)ccc4C)no3)s2)cc(OC)c1OC [D(75), 3-[3-[(3-chlorobenzoyl)amino]-6-methyl-phenyl]-5-[2-[(3,4,5-trimethoxyphenyl)amino]-4-amino-5-thiazolyl]-1,2,4-oxadiazole]	8.11	–
